From ChEMBL document CHEMBL3885861, “Open TG-GATES”

Organism: Rattus norvegicus
Assay: Open TG-GATES - Regimen: Daily Repeat
Assay type: toxicity, organism-based, Sprague-Dawley
Design: regimen Daily Repeat, gender Male, age 6 weeks
Details: in vivo, po, route gavage; for APTT / Bas / Eos / Fbg / Hb / Ht / Lym / MCH / MCHC / MCV / Mono / Neu / PT / Plat / RBC / Ret / WBC: tissue Blood; for KIDNEY_L / KIDNEY_R / KIDNEY_TOTAL: tissue Kidney; for LIVER: tissue Liver; for A/G / ALP / ALT / AST / BUN / CRE / Ca / Cl / DBIL / GLC / IP / K / LDH / Na / PL / RALB / TBIL / TC / TG / TP / gamma-GTP: tissue Plasma
[1] = 0 mg/kg, 72 h, dose level Control, time 3 day
[2] = 0 mg/kg, […], dose level Control, time 7 day
[3] = 0 mg/kg, […], dose level Control, time 14 day
[4] = 0 mg/kg, […], dose level Control, time 28 day
[5] = 30 mg/kg, 72 h, dose level Low, time 3 day
[6] = 30 mg/kg, […], dose level Low, time 7 day
[7] = 30 mg/kg, […], dose level Low, time 14 day
[8] = 30 mg/kg, […], dose level Low, time 28 day

CC(=O)Nc1ccc2c(c1)Cc1ccccc1-2 [2-ACETYLAMINOFLUORENE]
TERMINAL_BW [1]: 245.3 g
APTT [1]: 19.9 s
Bas [1]: 1%
Eos [1]: 1.2%
Fbg [1]: 227.2 mg/dL
Hb [1]: 14 g/dL
Ht [1]: 40.4%
Lym [1]: 82.2%
MCH [1]: 21.5 pg
MCHC [1]: 34.6%
MCV [1]: 62.3 fL
Mono [1]: 3%
Neu [1]: 12.6%
PT [1]: 11.3 s
Plat [1]: 127 x10_4/uL
RBC [1]: 648.4 x10_4/ul
Ret [1]: 5.8%
WBC [1]: 105.6 x10_2/uL
KIDNEY_L [1]: 1.1 g
KIDNEY_R [1]: 1.1 g
KIDNEY_TOTAL [1]: 2.2 g
LIVER [1]: 12.2 g
A/G [1]: 1.6
ALP [1]: 913.6 IU/L
ALT [1]: 38.2 IU/L
AST [1]: 73.2 IU/L
BUN [1]: 15.2 mg/dL
CRE [1]: 0.5 mg/dL
Ca [1]: 11 mg/dL
Cl [1]: 101.8 meq/L
DBIL [1]: 0.1 mg/dL
GLC [1]: 208.4 mg/dL
IP [1]: 8 mg/dL
K [1]: 4.1 meq/L
LDH [1]: 217.2 IU/L
Na [1]: 141.2 meq/L
PL [1]: 163 mg/dL
RALB [1]: 3.6 g/dL
TBIL [1]: 0.2 mg/dL
TC [1]: 81.8 mg/dL
TG [1]: 104.6 mg/dL
TP [1]: 5.8 g/dL
gamma-GTP [1]: 1.2 IU/L
TERMINAL_BW [2]: 278.1 g
TERMINAL_BW [3]: 334.5 g
TERMINAL_BW [4]: 417 g
APTT [2]: 19.7 s
Bas [2]: 0.4%
Eos [2]: 1%
Fbg [2]: 242 mg/dL
Hb [2]: 14.1 g/dL
Ht [2]: 39.9%
Lym [2]: 82.8%
MCH [2]: 21.9 pg
MCHC [2]: 35.2%
MCV [2]: 62.1 fL
Mono [2]: 2.4%
Neu [2]: 13%
PT [2]: 11.7 s
Plat [2]: 138.4 x10_4/uL
RBC [2]: 643 x10_4/ul
Ret [2]: 5.6%
WBC [2]: 114.7 x10_2/uL
APTT [3]: 21 s
Bas [3]: 0.8%
Eos [3]: 1%
Fbg [3]: 225.8 mg/dL
Hb [3]: 14.7 g/dL
Ht [3]: 42.3%
Lym [3]: 82.8%
MCH [3]: 20.5 pg
MCHC [3]: 34.7%
MCV [3]: 59 fL
Mono [3]: 2.2%
Neu [3]: 12.6%
PT [3]: 11.8 s
Plat [3]: 117.3 x10_4/uL
RBC [3]: 716.4 x10_4/ul
Ret [3]: 4%
WBC [3]: 96.8 x10_2/uL
APTT [4]: 20.8 s
Bas [4]: 0.8%
Eos [4]: 1%
Fbg [4]: 215.8 mg/dL
Hb [4]: 14.9 g/dL
Ht [4]: 43%
Lym [4]: 82.4%
MCH [4]: 19.8 pg
MCHC [4]: 34.7%
MCV [4]: 57.1 fL
Mono [4]: 2.2%
Neu [4]: 13.2%
PT [4]: 11.6 s
Plat [4]: 104.4 x10_4/uL
RBC [4]: 752.2 x10_4/ul
Ret [4]: 2.6%
WBC [4]: 122.5 x10_2/uL
KIDNEY_L [2]: 1.2 g
KIDNEY_R [2]: 1.2 g
KIDNEY_TOTAL [2]: 2.4 g
KIDNEY_L [3]: 1.3 g
KIDNEY_R [3]: 1.3 g
KIDNEY_TOTAL [3]: 2.6 g
KIDNEY_L [4]: 1.5 g
KIDNEY_R [4]: 1.5 g
KIDNEY_TOTAL [4]: 3 g
LIVER [2]: 12.4 g
LIVER [3]: 14.9 g
LIVER [4]: 16.7 g
A/G [2]: 1.4
ALP [2]: 914.8 IU/L
ALT [2]: 35.8 IU/L
AST [2]: 65 IU/L
BUN [2]: 13.6 mg/dL
CRE [2]: 0.4 mg/dL
Ca [2]: 10.7 mg/dL
Cl [2]: 103.2 meq/L
DBIL [2]: 0.076 mg/dL
GLC [2]: 201.2 mg/dL
IP [2]: 7.5 mg/dL
K [2]: 4.1 meq/L
LDH [2]: 188 IU/L
Na [2]: 140.4 meq/L
PL [2]: 136.4 mg/dL
RALB [2]: 3.4 g/dL
TBIL [2]: 0.1 mg/dL
TC [2]: 64.8 mg/dL
TG [2]: 96.2 mg/dL
TP [2]: 5.7 g/dL
gamma-GTP [2]: 1.4 IU/L
A/G [3]: 1.4
ALP [3]: 880.2 IU/L
ALT [3]: 35 IU/L
AST [3]: 64.4 IU/L
BUN [3]: 15.4 mg/dL
CRE [3]: 0.5 mg/dL
Ca [3]: 10.7 mg/dL
Cl [3]: 103.4 meq/L
DBIL [3]: 0.1 mg/dL
GLC [3]: 196.2 mg/dL
IP [3]: 7.3 mg/dL
K [3]: 4.1 meq/L
LDH [3]: 169.6 IU/L
Na [3]: 141.6 meq/L
PL [3]: 143.2 mg/dL
RALB [3]: 3.5 g/dL
TBIL [3]: 0.2 mg/dL
TC [3]: 69.6 mg/dL
TG [3]: 138 mg/dL
TP [3]: 5.9 g/dL
gamma-GTP [3]: 1.2 IU/L
A/G [4]: 1.4
ALP [4]: 611.4 IU/L
ALT [4]: 30.8 IU/L
AST [4]: 61.8 IU/L
BUN [4]: 19 mg/dL
CRE [4]: 0.4 mg/dL
Ca [4]: 10.4 mg/dL
Cl [4]: 102.4 meq/L
DBIL [4]: 0.092 mg/dL
GLC [4]: 265 mg/dL
IP [4]: 7.2 mg/dL
K [4]: 3.8 meq/L
LDH [4]: 194.4 IU/L
Na [4]: 140.4 meq/L
PL [4]: 143.4 mg/dL
RALB [4]: 3.4 g/dL
TBIL [4]: 0.1 mg/dL
TC [4]: 69.8 mg/dL
TG [4]: 107.8 mg/dL
TP [4]: 5.8 g/dL
gamma-GTP [4]: 1 IU/L
TERMINAL_BW [5]: 222.5 g
APTT [5]: 18.9 s
Bas [5]: 0.6%
Eos [5]: 1%
Fbg [5]: 226.6 mg/dL
Hb [5]: 14.8 g/dL
Ht [5]: 42.2%
Lym [5]: 81%
MCH [5]: 22.3 pg
MCHC [5]: 35%
MCV [5]: 63.7 fL
Mono [5]: 2.8%
Neu [5]: 14%
PT [5]: 12.3 s
Plat [5]: 131.4 x10_4/uL
RBC [5]: 663 x10_4/ul
Ret [5]: 4.1%
WBC [5]: 118 x10_2/uL
KIDNEY_L [5]: 1 g
KIDNEY_R [5]: 1 g
KIDNEY_TOTAL [5]: 2 g
LIVER [5]: 10.6 g
A/G [5]: 1.5
ALP [5]: 746.6 IU/L
ALT [5]: 26.6 IU/L
AST [5]: 69.2 IU/L
BUN [5]: 12.4 mg/dL
CRE [5]: 0.4 mg/dL
Ca [5]: 10.3 mg/dL
Cl [5]: 102.8 meq/L
DBIL [5]: 0.086 mg/dL
GLC [5]: 196.4 mg/dL
IP [5]: 7.2 mg/dL
K [5]: 4.1 meq/L
LDH [5]: 241 IU/L
Na [5]: 140.2 meq/L
PL [5]: 100.8 mg/dL
RALB [5]: 2.9 g/dL
TBIL [5]: 0.1 mg/dL
TC [5]: 50.2 mg/dL
TG [5]: 77 mg/dL
TP [5]: 5 g/dL
gamma-GTP [5]: 1.2 IU/L
TERMINAL_BW [6]: 239.2 g
TERMINAL_BW [7]: 259.1 g
TERMINAL_BW [8]: 315.1 g
APTT [6]: 18.4 s
Bas [6]: 0.8%
Eos [6]: 1%
Fbg [6]: 204 mg/dL
Hb [6]: 15.4 g/dL
Ht [6]: 42.8%
Lym [6]: 82%
MCH [6]: 22.2 pg
MCHC [6]: 35.9%
MCV [6]: 61.9 fL
Mono [6]: 3%
Neu [6]: 12.6%
PT [6]: 13 s
Plat [6]: 159.6 x10_4/uL
RBC [6]: 692.2 x10_4/ul
Ret [6]: 1.8%
WBC [6]: 125.9 x10_2/uL
APTT [7]: 19.1 s
Bas [7]: 1%
Eos [7]: 0%
Fbg [7]: 102.2 mg/dL
Hb [7]: 14.7 g/dL
Ht [7]: 42%
Lym [7]: 79.8%
MCH [7]: 19.7 pg
MCHC [7]: 35%
MCV [7]: 56.3 fL
Mono [7]: 3.2%
Neu [7]: 15.6%
PT [7]: 14.9 s
Plat [7]: 144.2 x10_4/uL
RBC [7]: 747.2 x10_4/ul
Ret [7]: 1.8%
WBC [7]: 145.6 x10_2/uL
APTT [8]: 25.4 s
Bas [8]: 0.8%
Eos [8]: 0.6%
Fbg [8]: 78.2 mg/dL
Hb [8]: 14 g/dL
Ht [8]: 40.8%
Lym [8]: 67.6%
MCH [8]: 19 pg
MCHC [8]: 34.3%
MCV [8]: 55.4 fL
Mono [8]: 4.2%
Neu [8]: 26.4%
PT [8]: 19.2 s
Plat [8]: 102.7 x10_4/uL
RBC [8]: 735.6 x10_4/ul
Ret [8]: 5.3%
WBC [8]: 274.6 x10_2/uL
KIDNEY_L [6]: 1 g
KIDNEY_R [6]: 1 g
KIDNEY_TOTAL [6]: 2 g
KIDNEY_L [7]: 1.1 g
KIDNEY_R [7]: 1.1 g
KIDNEY_TOTAL [7]: 2.2 g
KIDNEY_L [8]: 1.3 g
KIDNEY_R [8]: 1.3 g
KIDNEY_TOTAL [8]: 2.6 g
LIVER [6]: 10.5 g
LIVER [7]: 9.9 g
LIVER [8]: 10.2 g
A/G [6]: 1.4
ALP [6]: 1055.8 IU/L
ALT [6]: 35 IU/L
AST [6]: 88 IU/L
BUN [6]: 13.8 mg/dL
CRE [6]: 0.5 mg/dL
Ca [6]: 10.2 mg/dL
Cl [6]: 105.2 meq/L
DBIL [6]: 0.096 mg/dL
GLC [6]: 182.2 mg/dL
IP [6]: 6.4 mg/dL
K [6]: 3.9 meq/L
LDH [6]: 271 IU/L
Na [6]: 140.2 meq/L
PL [6]: 110.6 mg/dL
RALB [6]: 2.6 g/dL
TBIL [6]: 0.2 mg/dL
TC [6]: 44.4 mg/dL
TG [6]: 115 mg/dL
TP [6]: 4.4 g/dL
gamma-GTP [6]: 1.6 IU/L
A/G [7]: 1.3
ALP [7]: 1040.6 IU/L
ALT [7]: 42 IU/L
AST [7]: 98.6 IU/L
BUN [7]: 13 mg/dL
CRE [7]: 0.5 mg/dL
Ca [7]: 9.4 mg/dL
Cl [7]: 104.6 meq/L
DBIL [7]: 0.5 mg/dL
GLC [7]: 171 mg/dL
IP [7]: 7.1 mg/dL
K [7]: 3.9 meq/L
LDH [7]: 211.2 IU/L
Na [7]: 141.2 meq/L
PL [7]: 102.4 mg/dL
RALB [7]: 2.2 g/dL
TBIL [7]: 0.7 mg/dL
TC [7]: 40.8 mg/dL
TG [7]: 43.8 mg/dL
TP [7]: 3.8 g/dL
gamma-GTP [7]: 1.4 IU/L
A/G [8]: 1
ALP [8]: 883 IU/L
ALT [8]: 57.8 IU/L
AST [8]: 155.4 IU/L
BUN [8]: 17.2 mg/dL
CRE [8]: 0.4 mg/dL
Ca [8]: 8.5 mg/dL
Cl [8]: 103.6 meq/L
DBIL [8]: 3 mg/dL
GLC [8]: 130.6 mg/dL
IP [8]: 6.8 mg/dL
K [8]: 4.2 meq/L
LDH [8]: 252.2 IU/L
Na [8]: 140.2 meq/L
PL [8]: 120.2 mg/dL
RALB [8]: 1.7 g/dL
TBIL [8]: 3.8 mg/dL
TC [8]: 60.2 mg/dL
TG [8]: 30.2 mg/dL
TP [8]: 3.4 g/dL
gamma-GTP [8]: 25.4 IU/L
